Laboratory results taken from patent US20240115654A1, “INTRAVENOUS ADMINISTRATION OF ENGINEERED ANTIMICROBIAL AMPHIPHILIC PEPTIDES” (priority 2021, published 2024).
Like-named read-outs stand apart in the source and are kept apart here. Peptide text beside a SMILES is read from it.

Details: human, in vivo; for Vd: mean apparent volume of distribution (Vz)
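Note: phase 1 study in human subjects given one IV dose of the peptide, enrolled in sequential ascending-dose cohorts and randomized to peptide or placebo.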

## CC(C)[C@H](NC(=O)[C@H](Cc1c[nH]c2ccccc12)NC(=O)[C@H](CCCNC(=N)N)NC(=O)[C@H](CCCNC(=N)N)NC(=O)[C@@H](NC(=O)[C@@H](NC(=O)[C@H](CCCNC(=N)N)NC(=O)[C@@H](NC(=O)[C@@H](NC(=O)[C@H](CCCNC(=N)N)NC(=O)[C@H](CCCNC(=N)N)NC(=O)[C@H](Cc1c[nH]c2ccccc12)NC(=O)[C@@H](NC(=O)[C@H](CCCNC(=N)N)NC(=O)[C@H](CCCNC(=N)N)NC(=O)[C@@H](NC(=O)[C@H](CCCNC(=N)N)NC(=O)[C@H](CCCNC(=N)N)NC(=O)[C@@H](NC(=O)[C@H](Cc1c[nH]c2ccccc12)NC(=O)[C@H](CCCNC(=N)N)NC(=O)[C@@H](N)CCCNC(=N)N)C(C)C)C(C)C)C(C)C)C(C)C)C(C)C)C(C)C)C(C)C)C(=O)N[C@@H](CCCNC(=N)N)C(=O)N[C@@H](CCCNC(=N)N)C(N)=O [SEQ ID NO: 1] (H-RRWVRRVRRVWRRVVRVVRRWVRR-NH2)
iv, Cohort 4, 0.5 mg/kg IV infusion 2 hours, Median
  Cmax: 1970 ng/mL
iv, Cohort 4, 0.5 mg/kg IV, infusion 2 hours, cohort Geometric Mean
  Cmax: 1770 ng/mL
iv, Cohort 4, 0.5 mg/kg IV, infusion 2 hours, cohort Mean
  Cmax: 1830 ng/mL
iv, Cohort 4, 0.5 mg/kg IV, infusion 2 hours, cohort Median
  Cmax: 1970 ng/mL
iv, Cohort 5, 1 mg/kg IV infusion 4 hours, Geometric Mean
  Cmax: 2580 ng/mL
iv, Cohort 5, 1 mg/kg IV infusion 4 hours, Mean
  Cmax: 2650 ng/mL
iv, Cohort 5, 1 mg/kg IV infusion 4 hours, Median
  Cmax: 2510 ng/mL
iv, Cohort 5, 1 mg/kg IV infusion 4 hours, individual subject
  Cmax: 4000 ng/mL
iv, Tmax, Cohort 1, 0.05 mg/kg IV infusion, Geometric Mean
  Tmax: 1 h
iv, Tmax, Cohort 1, 0.05 mg/kg IV infusion, Mean
  Tmax: 1 h
iv, Tmax, Cohort 1, 0.05 mg/kg IV infusion, Median
  Tmax: 1 h
iv, Tmax, Cohort 1, 0.05 mg/kg IV infusion, cohort Geometric Mean
  Tmax: 1 h
iv, Tmax, Cohort 1, 0.05 mg/kg IV infusion, cohort Mean
  Tmax: 1 h
iv, Tmax, Cohort 1, 0.05 mg/kg IV infusion, cohort Median
  Tmax: 1 h
iv, Tmax, Cohort 1, 0.05 mg/kg IV infusion, individual subject
  Tmax: 1 h
iv, Tmax, Cohort 1, 0.05 mg/kg IV infusion, individual subjects
  Tmax: 1 h
iv, Tmax, Cohort 2, […] IV infusion, Geometric Mean
  Tmax: 1 h
iv, Tmax, Cohort 2, […] IV infusion, Mean
  Tmax: 1 h
iv, Tmax, Cohort 2, […] IV infusion, Median
  Tmax: 1 h
iv, Tmax, Cohort 2, […] IV infusion, cohort Geometric Mean
  Tmax: 1 h
iv, Tmax, Cohort 2, […] IV infusion, cohort Mean
  Tmax: 1 h
iv, Tmax, Cohort 2, […] IV infusion, cohort Median
  Tmax: 1 h
iv, Tmax, Cohort 2, […] IV infusion, individual subject
  Tmax: 1 h
iv, Tmax, Cohort 2, […] IV infusion, individual subjects
  Tmax: 1 h
iv, Tmax, Cohort 3, […] IV infusion, Geometric Mean
  Tmax: 0.66 h
iv, Tmax, Cohort 3, […] IV infusion, Mean
  Tmax: 0.71 h
iv, Tmax, Cohort 3, […] IV infusion, Median
  Tmax: 0.5 h
iv, Tmax, Cohort 3, […] IV infusion, cohort Geometric Mean
  Tmax: 0.66 h
iv, Tmax, Cohort 3, […] IV infusion, cohort Mean
  Tmax: 0.71 h
iv, Tmax, Cohort 3, […] IV infusion, cohort Median
  Tmax: 0.5 h
iv, Tmax, Cohort 3, […] IV infusion, individual subject
  Tmax: 1 h
iv, Tmax, Cohort 3, […] IV infusion, individual subjects
  Tmax: 1 h
iv, Tmax, Cohort 3b, […] IV infusion 2 hours, Geometric Mean
  Tmax: 2 h
iv, Tmax, Cohort 3b, […] IV infusion 2 hours, Mean
  Tmax: 2 h
iv, Tmax, Cohort 3b, […] IV infusion 2 hours, Median
  Tmax: 2 h
iv, Tmax, Cohort 3b, […] IV infusion 2 hours, individual subject
  Tmax: 2 h
iv, Tmax, Cohort 3b, infusion 2 hours, cohort Geometric Mean
  Tmax: 2 h
iv, Tmax, Cohort 3b, infusion 2 hours, cohort Mean
  Tmax: 2 h
iv, Tmax, Cohort 3b, infusion 2 hours, cohort Median
  Tmax: 2 h
iv, Tmax, Cohort 3b, infusion 2 hours, individual subjects
  Tmax: 2 h
iv, Tmax, Cohort 4, 0.5 mg/kg IV infusion 2 hours, Geometric Mean
  Tmax: 2 h
iv, Tmax, Cohort 4, 0.5 mg/kg IV infusion 2 hours, Mean
  Tmax: 2 h
iv, Tmax, Cohort 4, 0.5 mg/kg IV infusion 2 hours, Median
  Tmax: 2 h
iv, Tmax, Cohort 4, 0.5 mg/kg IV infusion 2 hours, individual subject
  Tmax: 2 h
iv, Tmax, Cohort 4, 0.5 mg/kg IV, infusion 2 hours, cohort Geometric Mean
  Tmax: 2 h
iv, Tmax, Cohort 4, 0.5 mg/kg IV, infusion 2 hours, cohort Mean
  Tmax: 2 h
iv, Tmax, Cohort 4, 0.5 mg/kg IV, infusion 2 hours, cohort Median
  Tmax: 2 h
iv, Tmax, Cohort 4, 0.5 mg/kg IV, infusion 2 hours, individual subjects
  Tmax: 2 h
iv, Tmax, Cohort 5, 1 mg/kg IV infusion 4 hours, Geometric Mean
  Tmax: 4 h
iv, Tmax, Cohort 5, 1 mg/kg IV infusion 4 hours, Mean
  Tmax: 4 h
iv, Tmax, Cohort 5, 1 mg/kg IV infusion 4 hours, Median
  Tmax: 4 h
iv, Tmax, Cohort 5, 1 mg/kg IV infusion 4 hours, individual subject
  Tmax: 4 h
iv, […], t1/2, […] IV 1-hr infusion
  half-life: 10.5 h
iv, […], t1/2, […] IV 1-hr infusion (only 3 participants)
  half-life: 19.9 h
iv, […], t1/2, […] IV 2-hr infusion
  half-life: 13.2 h
iv, median Tmax, 0.05 and […] doses, 1-hour IV infusion (Cohorts 1, 2)
  Tmax: 1.02 h
iv, median Tmax, 0.25 and 0.5 mg/kg doses, 2-hour IV infusion (Cohorts 3b, 4)
  Tmax: 2.02 h
iv, t1/2, Cohort 1, 0.05 mg/kg IV infusion, Geometric Mean
  half-life: 7.33 h
iv, t1/2, Cohort 1, 0.05 mg/kg IV infusion, Mean
  half-life: 7.36 h
iv, t1/2, Cohort 1, 0.05 mg/kg IV infusion, Median
  half-life: 7.29 h
iv, t1/2, Cohort 1, 0.05 mg/kg IV infusion, cohort Geometric Mean
  half-life: 7.33 h
iv, t1/2, Cohort 1, 0.05 mg/kg IV infusion, cohort Mean
  half-life: 7.36 h
iv, t1/2, Cohort 1, 0.05 mg/kg IV infusion, cohort Median
  half-life: 7.29 h
iv, t1/2, Cohort 1, 0.05 mg/kg IV infusion, individual subject
  half-life: 6.62 h
iv, t1/2, Cohort 1, 0.05 mg/kg IV infusion, individual subjects
  half-life: 6.62 h
iv, t1/2, Cohort 2, […] IV infusion, Geometric Mean
  half-life: 10.1 h
iv, t1/2, Cohort 2, […] IV infusion, Mean
  half-life: 10.5 h
iv, t1/2, Cohort 2, […] IV infusion, Median
  half-life: 9.2 h
iv, t1/2, Cohort 2, […] IV infusion, cohort Geometric Mean
  half-life: 10.1 h
iv, t1/2, Cohort 2, […] IV infusion, cohort Mean
  half-life: 10.5 h
iv, t1/2, Cohort 2, […] IV infusion, cohort Median
  half-life: 9.2 h
iv, t1/2, Cohort 3, […] IV infusion, Geometric Mean
  half-life: 13.6 h
iv, t1/2, Cohort 3, […] IV infusion, Mean
  half-life: 15.2 h
iv, t1/2, Cohort 3, […] IV infusion, Median
  half-life: 19 h
iv, t1/2, Cohort 3, […] IV infusion, cohort Geometric Mean
  half-life: 13.6 h
iv, t1/2, Cohort 3, […] IV infusion, cohort Mean
  half-life: 15.2 h
iv, t1/2, Cohort 3, […] IV infusion, cohort Median
  half-life: 19 h
iv, t1/2, Cohort 3b, […] IV infusion 2 hours, Geometric Mean
  half-life: 12.8 h
iv, t1/2, Cohort 3b, […] IV infusion 2 hours, Mean
  half-life: 13.1 h
iv, t1/2, Cohort 3b, […] IV infusion 2 hours, Median
  half-life: 13.1 h
iv, t1/2, Cohort 3b, […] IV infusion 2 hours, individual subject
  half-life: 17.5 h
iv, t1/2, Cohort 3b, infusion 2 hours, cohort Geometric Mean
  half-life: 12.8 h
iv, t1/2, Cohort 3b, infusion 2 hours, cohort Mean
  half-life: 13.1 h
iv, t1/2, Cohort 3b, infusion 2 hours, cohort Median
  half-life: 13.1 h
iv, t1/2, Cohort 3b, infusion 2 hours, individual subjects
  half-life: 17.5 h
iv, t1/2, Cohort 4, 0.5 mg/kg IV infusion 2 hours, Geometric Mean
  half-life: 15.7 h
iv, t1/2, Cohort 4, 0.5 mg/kg IV infusion 2 hours, Mean
  half-life: 16.2 h
iv, t1/2, Cohort 4, 0.5 mg/kg IV infusion 2 hours, Median
  half-life: 15.6 h
iv, t1/2, Cohort 4, 0.5 mg/kg IV infusion 2 hours, individual subject
  half-life: 12.6 h
iv, t1/2, Cohort 4, 0.5 mg/kg IV, infusion 2 hours, cohort Geometric Mean
  half-life: 15.7 h
iv, t1/2, Cohort 4, 0.5 mg/kg IV, infusion 2 hours, cohort Mean
  half-life: 16.2 h
iv, t1/2, Cohort 4, 0.5 mg/kg IV, infusion 2 hours, cohort Median
  half-life: 15.6 h
iv, t1/2, Cohort 4, 0.5 mg/kg IV, infusion 2 hours, individual subjects
  half-life: 12.6 h
iv, t1/2, Cohort 5, 1 mg/kg IV infusion 4 hours, Geometric Mean
  half-life: 18.6 h
iv, t1/2, Cohort 5, 1 mg/kg IV infusion 4 hours, Mean
  half-life: 19.9 h
iv, t1/2, Cohort 5, 1 mg/kg IV infusion 4 hours, Median
  half-life: 20.9 h
Mean Tmax, Cohort 1, from the start of infusion
  Tmax: 0.85 h
Mean Tmax, Cohort 5, from the start of infusion
  Tmax: 4.19 h
Cohort 1
  Vd: 25.5 L
Cohort 5
  Vd: 94.2 L
Mean half-life, Cohorts 1 to 3 (0.05 to […], 1-hour infusion), increasing with dose
  half-life: 7.22 to 15.2 h
Mean half-life, Cohorts 3b and 4 (0.25 and 0.5 mg/kg, 2-hour infusion), increasing with dose
  half-life: 13.1 to 16.2 h
Mean terminal half-life, range over dose groups, dose range 0.05 to 0.5 mg/kg (Cohorts 1 to 4)
  half-life: 7.4 to 19.9 h
t1/2, single 1-hour infusion 0.05 mg/kg, Geometric Mean
  half-life: 7.33 h
t1/2, single 1-hour infusion 0.05 mg/kg, Mean
  half-life: 7.36 h
t1/2, single 1-hour infusion 0.05 mg/kg, Median
  half-life: 7.29 h
t1/2, single 1-hour infusion 0.05 mg/kg, individual subjects
  half-life: 6.62 h
